Test results as given in patent US20090082354A1, “PYRAZOLO[5, 1-C] [1,2,4] TRIAZINES, METHODS FOR PREPARATION AND USE THEREOF” (Wyeth, priority 2007, published 2009).

Molecular target: T1, Flag/GST-tagged recombinant human B-Raf (Homo sapiens, UniProt P15056)
T1 construct: Flag; GST; made in house; host or cells: Sf9 insect cells (B-Raf); E. coli (MEK1-GST)
Experiment: B-Raf kinase assay (phosphorylation of GST-MEK1, DELFIA readout)
Type: biochemical
Settings: B-Raf 0.2 nM, non-active GST-MEK1 2.8 nM, 45 minutes at RT; compound 1 μM to 3 nM or 0.1 uM to 300 pm in half log dilutions
Experimental: Testing For B-Raf Kinase Inhibitors
Compounds of Formula A were tested as B-Raf Kinase inhibitors that can inhibit growth of tumor cells which contain oncogenic forms of Receptor Tyrosine Kinases or K-Ras, or B-Raf kinase.
Reagents: Flag/GST-tagged recombinant human B-Raf produced in Sf9 insect cells, human non-active Mek-1-GST (recombinant protein produced in E. coli); and a phospho-MEK1 specific poly-clonal Ab from Cell Signaling Technology (Cat. #9121).
B-Raf1 Kinase Assay Procedure: B-Raf-1 is used to phosphorylate GST-MEK1. MEK1 phosphorylation is measured by a phospho-specific antibody (from Cell Signaling Technology, Cat. #9121) that detects phosphorylation of two serine residues at positions 217 and 221 on MEK1.
The following Kinase Assay Protocol was employed in accordance with the invention:
B-Raf Assay Stock Solutions:
1. Assay Dilution Buffer (ADB): 20 mM MOPS, pH 7.2, 25 mM B-glycerol phosphate, 5 mM EGTA, 1 mM sodium orthovanadate, 1 mM dithiothreitol, 0.01% Triton X-100. 2. Magnesium/ATP Cocktail: ADB solution (minus Triton X-100) plus 200 μM cold ATP and 40 mM magnesium chloride. 3. Active Kinase: Active B-Raf: used at 0.2 nM per assay point. 4. Non-active GST-MEK1: Use at 2.8 nM final concentration). 5. TBST-Tris (50 mM, pH 7.5), NaCl (150 mM), Tween-20 (0.05%)
7. Anti pMEK Ab (Upstate) 8. Anti-rabbit Ab/Europium conjugate (Wallac)
1. Add 25 μl of ADB containing B-Raf and Mek per assay (i.e. per well of a 96 well plate) 2. Add 25 μl of 0.2 mM ATP and 40 mM magnesium chloride in Magnesuium/ATP Cocktail. 3. Incubate for 45 minutes at RT with occasional shaking. 4. Transfer this mixture to an anti-GST Ab coated 96 well plate (Nunc Immunosorb plates coated o/n with a-GST. Plate freshly washed 3× with TBS-T before use. 5. Incubate o/n at […] in cold room. 6. Wash 3× with TBST, add Anti-Phospho MEK1 (1:1000, dilution depends upon lot) 7. Incubate for 60 minutes at RT in a shaking incubator 8. Wash 3× with TBST, add Anti-rabbit Ab/Europium conjugate (Wallac) (1:500, dilution depends upon lot) 9. Incubate for 60 minutes at RT on a platform shaker. 10. Wash plate 3× with TBS-T 11. Add 100 ul of Wallac Delfia Enhancement Solution and shake for 10 minutes. 12. Read plates in Wallac Victor model Plate Reader. 13. Collect data analyze in Excel for single point and IC50 determinations. Mallon R, et al (2001) Anal. Biochem. 294:48.
IC50 determinations were performed on compounds of Formula A from single point assays with >80% inhibition. Single point assay—% inhibition at 10 mg/mL (% inhibition=1—sample treated with compound of Formula A/untreated control sample). The % inhibition was determined for each compound concentration. IC50 determinations—Typically the B-Raf assay was run at compound concentrations from 1 μM to 3 nM or 0.1 uM to 300 pm in half log dilutions. Data was analyzed in Excel and transferred to Radis.

T1 sequence (P15056 whole entry): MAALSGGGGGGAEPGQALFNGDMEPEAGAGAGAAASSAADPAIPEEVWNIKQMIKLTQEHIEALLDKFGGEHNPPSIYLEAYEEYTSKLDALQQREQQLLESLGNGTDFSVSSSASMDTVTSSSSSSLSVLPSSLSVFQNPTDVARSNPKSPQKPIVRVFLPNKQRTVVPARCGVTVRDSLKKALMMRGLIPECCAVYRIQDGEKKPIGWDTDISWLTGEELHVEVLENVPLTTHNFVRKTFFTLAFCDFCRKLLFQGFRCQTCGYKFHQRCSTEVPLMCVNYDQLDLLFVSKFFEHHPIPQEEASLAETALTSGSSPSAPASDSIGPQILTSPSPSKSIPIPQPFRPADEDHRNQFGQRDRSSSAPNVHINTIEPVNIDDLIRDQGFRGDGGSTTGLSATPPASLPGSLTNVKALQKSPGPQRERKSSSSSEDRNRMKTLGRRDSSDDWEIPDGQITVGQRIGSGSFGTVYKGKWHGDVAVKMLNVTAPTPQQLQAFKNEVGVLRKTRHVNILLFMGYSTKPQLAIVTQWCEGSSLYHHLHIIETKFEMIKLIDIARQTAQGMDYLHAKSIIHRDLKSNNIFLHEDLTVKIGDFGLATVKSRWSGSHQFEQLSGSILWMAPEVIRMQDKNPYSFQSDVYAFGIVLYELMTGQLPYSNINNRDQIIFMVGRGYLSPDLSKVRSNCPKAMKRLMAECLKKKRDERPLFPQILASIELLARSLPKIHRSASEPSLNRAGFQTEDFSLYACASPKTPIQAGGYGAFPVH

IC50	Structure (SMILES)
18 nM	Oc1cccc(-c2c(-c3ccncc3)nn3c(C4CCCCC4)cnnc23)c1 [Example 2, 3-(4-cyclohexyl-7-pyridin-4-yl-pyrazolo[5,1-c][1,2,4]triazin-8-yl)phenol]
1000 nM	COc1cccc(-c2c(-c3ccncc3)nn3c(C)c(C(=O)N4CCN(C)CC4)nnc23)c1 [Example 3]
91 nM	Oc1cccc(-c2c(-c3ccncc3)nn3c(-c4ccc(Br)nc4)cnnc23)c1 [Example 5, 3-[4-(6-Bromo-pyridin-3-yl)-7-pyridin-4-yl-pyrazolo[5,1-c][1,2,4]triazin-8-yl]-phenol]
2 nM	CN1CCCN(c2ccc(-c3cnnc4c(-c5cccc(O)c5)c(-c5ccncc5)nn34)cn2)CC1 [Example 6, 3-{4-[6-(4-Methyl-[1,4]diazepan-1-yl)-pyridin-3-yl]-7-pyridin-4-yl-pyrazolo[5,1-c][1,2,4]triazin-8yl}-phenol]
2 nM	CN1CCN(c2ccc(-c3cnnc4c(-c5cccc(O)c5)c(-c5ccncc5)nn34)cn2)CC1 [Example 7, 3-{4-[6-(4-Methyl-piperazin-1-yl)-pyridin-3-yl]-7-pyridin-4-yl-pyrazolo[5,1-c][1,2,4]triazin-8-yl}-phenol]
55 nM	Cc1c(S(=O)(=O)c2ccccc2)nnc2c(-c3cccc(O)c3)c(-c3ccncc3)nn12 [Example 9, 3-[4-Methyl-3-(phenylsulfonyl)-7-pyridin-4-ylpyrazolo[5,1-c][1,2,4]triazin-8-yl]phenol]
329 nM	CCOC(=O)c1nnc2c(-c3ccc(Cl)c(OC)c3)c(-c3ccncc3)nn2c1C1CC1 [Example 10, Ethyl 8-(4-chloro-3-methoxyphenyl)-4-cyclopropyl-7-pyridin-4-yl pyrazolo[5,1-c][1,2,4]triazine-3-carboxylate]
< 0.3 nM	CN1CCCN(c2ccc(-c3cnnc4c(-c5ccc(Cl)c(O)c5)c(-c5ccncc5)nn34)cn2)CC1 [Example 14, 2-Chloro-5-{4-[6-(4-methyl-1,4-diazepan-1-yl)pyridin-3-yl]-7-pyridin-4-ylpyrazolo[5,1-c][1,2,4]triazin-8-yl}phenol]
< 0.3 nM	CN1CCN(S(=O)(=O)c2cccc(-c3cnnc4c(-c5ccc(Cl)c(O)c5)c(-c5ccncc5)nn34)c2)CC1 [Example 15, 2-Chloro-5-(4-{3-[(4-methylpiperazin-1-yl)sulfonyl]phenyl}-7-pyridin-4-ylpyrazolo[5,1-c][1,2,4]triazin-8-yl)phenol]
0.3 nM	CCOC(=O)N1C2CCC1CC(c1cnnc3c(-c4ccc(Cl)c(O)c4)c(-c4ccncc4)nn13)C2 (stereo not shown) [Example 18, Ethyl 3-[8-(4-chloro-3-hydroxyphenyl)-7-pyridin-4-ylpyrazolo[5,1-c][1,2,4]triazin-4-yl]-8-azabicyclo[3.2.1]octane-8-carboxylate]
